Results from ChEMBL document CHEMBL1201862, “PubChem BioAssay data set” (2004).
The source made the active and inactive calls.

Legend:
CAAX prenyl protease 2 = molecular target: T1, CAAX prenyl protease 2 (Homo sapiens, UniProt Q9Y256); experiment: human Rce1 protease inhibitors, dose response, biochemical, yeast membranes, quenched-peptide fluorescence, cherry-pick (AID 588849)
T1 sequence (Q9Y256 whole entry): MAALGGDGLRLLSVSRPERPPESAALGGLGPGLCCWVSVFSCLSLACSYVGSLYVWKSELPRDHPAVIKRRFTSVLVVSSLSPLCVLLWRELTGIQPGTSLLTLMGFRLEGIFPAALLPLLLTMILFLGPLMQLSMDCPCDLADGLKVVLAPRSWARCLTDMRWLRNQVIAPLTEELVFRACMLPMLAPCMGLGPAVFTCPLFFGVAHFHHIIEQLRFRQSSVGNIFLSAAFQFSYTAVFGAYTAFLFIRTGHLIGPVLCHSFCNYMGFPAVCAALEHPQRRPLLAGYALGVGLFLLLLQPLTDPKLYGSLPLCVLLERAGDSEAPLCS

Trypsin = Trypsin (Sus scrofa, UniProt P00761); experiment: porcine trypsin inhibitors, dose response, selectivity assay for Rce1 protease inhibitor project, biochemical, quenched peptide fluorescence, cherry-pick (AID 488789)
[1] = HeLa cell cytotoxicity, dose response, cytotoxicity control for MgcRacGAP inhibitor project (AID 624300); type: functional
[2] = molecular target: FAD-linked sulfhydryl oxidase ALR (Homo sapiens, UniProt P55789); experiment: inhibitors of human ALR sulfhydryl oxidase, dose response, biochemical, H2O2 detection, luminescence, cherry-pick (AID 493248)
[3] = molecular target: T2, Rac GTPase-activating protein 1 (Homo sapiens, UniProt Q9H0H5); experiment: MgcRacGAP GTPase-activating activity inhibitors, confirmation, biochemical, ADP Hunter fluorescence, primary and confirmatory (AID 624330); type: functional
T2 sequence (Q9H0H5 whole entry): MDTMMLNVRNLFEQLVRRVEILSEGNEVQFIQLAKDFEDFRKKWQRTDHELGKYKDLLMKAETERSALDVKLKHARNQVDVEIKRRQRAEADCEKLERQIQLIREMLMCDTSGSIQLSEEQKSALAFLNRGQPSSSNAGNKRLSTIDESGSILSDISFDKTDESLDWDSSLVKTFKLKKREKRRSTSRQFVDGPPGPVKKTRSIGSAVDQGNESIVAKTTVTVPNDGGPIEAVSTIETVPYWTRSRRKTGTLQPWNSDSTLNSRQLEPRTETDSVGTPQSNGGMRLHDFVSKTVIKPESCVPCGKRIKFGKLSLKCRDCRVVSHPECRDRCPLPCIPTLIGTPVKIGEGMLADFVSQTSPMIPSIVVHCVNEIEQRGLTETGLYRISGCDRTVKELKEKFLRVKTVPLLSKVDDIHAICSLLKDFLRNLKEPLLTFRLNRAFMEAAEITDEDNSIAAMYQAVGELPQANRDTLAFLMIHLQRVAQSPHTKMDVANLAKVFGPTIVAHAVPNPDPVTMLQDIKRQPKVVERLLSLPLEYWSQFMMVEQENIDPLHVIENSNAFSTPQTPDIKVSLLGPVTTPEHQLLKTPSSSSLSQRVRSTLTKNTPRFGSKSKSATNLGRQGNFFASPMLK

HeLa = experiment: HeLa cell cytotoxicity, dose response, cytotoxicity control for MITF activator project, CellTiter-Glo luminescence, cherry-pick samples (AID 540259); type: functional, cell-based; conditions: Homo sapiens
HEK293 = experiment: cells; type: functional, cell-based; conditions: Homo sapiens
Protein skinhead-1 = molecular target: T3, Protein skinhead-1 (Caenorhabditis elegans, UniProt P34707); type: functional
T3 sequence (P34707 whole entry): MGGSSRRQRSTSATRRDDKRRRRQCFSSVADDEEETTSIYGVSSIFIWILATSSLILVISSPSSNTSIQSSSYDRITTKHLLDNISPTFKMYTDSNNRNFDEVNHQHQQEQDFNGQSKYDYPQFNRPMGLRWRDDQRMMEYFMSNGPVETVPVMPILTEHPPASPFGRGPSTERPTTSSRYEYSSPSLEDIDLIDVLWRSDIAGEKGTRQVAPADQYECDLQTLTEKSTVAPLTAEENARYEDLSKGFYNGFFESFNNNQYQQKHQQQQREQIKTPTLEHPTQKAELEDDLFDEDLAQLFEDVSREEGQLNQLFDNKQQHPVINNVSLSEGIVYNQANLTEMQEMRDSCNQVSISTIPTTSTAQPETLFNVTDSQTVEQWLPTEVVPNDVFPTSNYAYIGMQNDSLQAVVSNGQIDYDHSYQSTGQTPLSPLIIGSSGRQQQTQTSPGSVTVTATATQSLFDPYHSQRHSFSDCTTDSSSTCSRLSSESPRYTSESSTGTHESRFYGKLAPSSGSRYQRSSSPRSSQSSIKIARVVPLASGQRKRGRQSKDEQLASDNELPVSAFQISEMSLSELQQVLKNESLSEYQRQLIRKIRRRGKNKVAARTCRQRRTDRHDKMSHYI

[4] = molecular target: T4, Nuclear receptor subfamily 0 group B member 1 (Homo sapiens, UniProt P51843); experiment: Luminescence-based cell-based high throughput dose response assay for inhibitors of the orphan nuclear receptor subfamily 0, group B, member 1 (DAX1; NR0B1). [Related pubchem assays (depositor defined):AID504766, AID504790]; type: functional
T4 sequence (P51843 whole entry): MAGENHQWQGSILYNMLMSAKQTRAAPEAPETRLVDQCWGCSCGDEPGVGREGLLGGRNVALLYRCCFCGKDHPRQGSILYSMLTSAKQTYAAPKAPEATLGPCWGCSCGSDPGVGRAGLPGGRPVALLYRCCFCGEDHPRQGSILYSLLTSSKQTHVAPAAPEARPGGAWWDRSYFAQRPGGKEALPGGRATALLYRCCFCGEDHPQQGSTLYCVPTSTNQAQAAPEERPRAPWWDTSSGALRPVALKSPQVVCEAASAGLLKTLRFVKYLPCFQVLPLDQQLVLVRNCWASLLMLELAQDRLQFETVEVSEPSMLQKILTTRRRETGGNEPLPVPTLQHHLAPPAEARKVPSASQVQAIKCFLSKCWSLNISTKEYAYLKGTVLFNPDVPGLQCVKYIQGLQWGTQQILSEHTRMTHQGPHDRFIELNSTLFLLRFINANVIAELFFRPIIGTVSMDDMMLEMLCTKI

[5] = molecular target: T5, Ubiquitin-conjugating enzyme E2 N (Homo sapiens, UniProt P61088); type: functional;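 also: Dose-response confirmation in a TR-FRET assay detecting UBC13-driven polyubiquitin chain formation, inhibition measured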
T5 sequence (P61088 whole entry): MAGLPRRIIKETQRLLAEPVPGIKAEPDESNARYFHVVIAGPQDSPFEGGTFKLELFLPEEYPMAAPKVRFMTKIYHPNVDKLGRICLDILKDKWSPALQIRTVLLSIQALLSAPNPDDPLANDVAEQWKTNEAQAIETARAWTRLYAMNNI

A-375 = experiment: A375 melanoma cell viability reduction, dose response, counter-screen for MITF modulator project, cherry-pick samples, set 2 (AID 540335); type: functional, cell-based; conditions: Homo sapiens
[6] = Luminescence Cell-Based Dose Retest to Confirm Inhibitors of Cancer Stem Cells. [Related pubchem assays (depositor defined):AID2717, AID2721]; type: functional; conditions: Homo sapiens
Streptococcus = experiment: Group A Streptococcus viability loss, dose response, counter-screen for streptokinase expression inhibitor project, luminescence, BacTiterGlo (AID 1915); type: functional, organism-based;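 also: potency for reduction of bacterial viability or growth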
[7] = molecular target: T6, Small ubiquitin-related modifier 1 (Homo sapiens, UniProt P63165); experiment: inhibitors of SUMO1 peptide binding, dose response, biochemical, fluorescence polarization, uHTS hits (AID 624382); type: functional; conditions: read-out: IC50_Mean
[8] = molecular target: T6, Small ubiquitin-related modifier 1; experiment: inhibitors of SUMO1 partner interactions, dose response, biochemical, FRET (AID 624383); type: functional; conditions: read-out: IC50_Mean
[9] = tested on: Streptococcus sp. 'group A'; experiment: growth inhibition of control SK(-) GAS strain, dose response, counter-screen for streptokinase expression inhibitor project, luminescence, kanamycin, BacTiterGlo, confirmation (AID 1900); type: functional, organism-based
[10] = molecular target: Induced myeloid leukemia cell differentiation protein Mcl-1 (Homo sapiens, UniProt Q07820); type: functional
Streptokinase A = molecular target: T7, Streptokinase A (Streptococcus pyogenes serotype M1, UniProt P10520); experiment: S. pyogenes streptokinase expression inhibitors, potency, dose response, plasminogen activation absorbance, OD405 (AID 1914); type: functional, Streptococcus pyogenes M1 GAS;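 also: secreted streptokinase activity via plasminogen activation per viability signal from cell pellet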
T7 sequence (P10520 whole entry): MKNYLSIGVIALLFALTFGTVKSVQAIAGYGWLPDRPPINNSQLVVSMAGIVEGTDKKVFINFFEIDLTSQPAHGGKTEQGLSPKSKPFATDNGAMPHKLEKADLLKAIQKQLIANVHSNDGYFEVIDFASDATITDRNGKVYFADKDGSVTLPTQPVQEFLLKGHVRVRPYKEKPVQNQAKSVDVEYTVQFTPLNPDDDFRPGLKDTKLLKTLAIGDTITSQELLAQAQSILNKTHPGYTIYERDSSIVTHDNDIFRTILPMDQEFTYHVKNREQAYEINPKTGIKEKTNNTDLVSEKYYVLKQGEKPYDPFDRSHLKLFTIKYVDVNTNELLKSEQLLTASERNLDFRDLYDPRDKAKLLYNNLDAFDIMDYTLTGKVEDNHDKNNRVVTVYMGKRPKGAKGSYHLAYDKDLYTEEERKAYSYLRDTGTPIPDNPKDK

Cytochrome P450 3A4 = Cytochrome P450 3A4 (Homo sapiens, UniProt P08684);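 also: CYP3A4 tested as one member of a cytochrome P450 panel screen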
Cytochrome P450 2D6 = Cytochrome P450 2D6 (Homo sapiens, UniProt P10635);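 also: CYP2D6 member of a cytochrome P450 panel assay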
[11] = A cytotoxicity screen of small molecule inhibitors of the PhoP region in Salmonella typhi identified in the primary screen. [Related pubchem assays: 1850, 1864, 1985 ]; type: functional
[12] = molecular target: T8, Zinc finger protein mex-5 (Caenorhabditis elegans, UniProt Q9XUB2); experiment: MEX-5/TCR-2 RNA interaction inhibitors, dose response, biochemical, C. elegans, fluorescence polarization (AID 1960)
T8 sequence (Q9XUB2 whole entry): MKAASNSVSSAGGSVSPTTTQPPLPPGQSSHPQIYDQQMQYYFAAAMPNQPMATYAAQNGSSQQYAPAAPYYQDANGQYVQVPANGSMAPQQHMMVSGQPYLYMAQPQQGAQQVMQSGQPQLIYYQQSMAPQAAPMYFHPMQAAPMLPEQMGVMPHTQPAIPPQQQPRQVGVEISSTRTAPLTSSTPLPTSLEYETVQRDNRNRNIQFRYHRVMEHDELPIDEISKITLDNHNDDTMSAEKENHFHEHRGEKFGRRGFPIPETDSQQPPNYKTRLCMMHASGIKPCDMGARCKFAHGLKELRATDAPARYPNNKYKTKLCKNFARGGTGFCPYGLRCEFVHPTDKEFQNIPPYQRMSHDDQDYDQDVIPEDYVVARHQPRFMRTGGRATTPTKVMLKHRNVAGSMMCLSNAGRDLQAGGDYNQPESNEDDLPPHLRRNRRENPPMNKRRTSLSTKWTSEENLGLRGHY

[13] = molecular target: T9, RNA-binding protein pos-1 (Caenorhabditis elegans, UniProt G5EF15); experiment: inhibitors of POS-1/mex-3 RNA binding, dose response, biochemical, fluorescence polarization (AID 1964);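 also: purified POS-1 fused to maltose binding protein made in E. coli; potency of compounds blocking POS-1 binding to fluorescent RNA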
T9 sequence (G5EF15 whole entry): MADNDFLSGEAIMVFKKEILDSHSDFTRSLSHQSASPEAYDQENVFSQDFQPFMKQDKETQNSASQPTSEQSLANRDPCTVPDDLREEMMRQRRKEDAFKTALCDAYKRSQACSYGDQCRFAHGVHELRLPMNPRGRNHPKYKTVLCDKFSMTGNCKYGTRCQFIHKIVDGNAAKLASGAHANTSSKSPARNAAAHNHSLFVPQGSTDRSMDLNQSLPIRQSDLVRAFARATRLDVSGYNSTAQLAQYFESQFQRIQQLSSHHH

[14] = molecular target: T10, Endoribonuclease toxin MazF (Escherichia coli K-12, UniProt P0AE70); experiment: fluorescent RNA oligo signal without MazF, dose response, counter-screen for MazEF activator project, biochemical, fluorescence, single-stranded RNase substrate (AID 588502); type: functional
T10 sequence (P0AE70 whole entry): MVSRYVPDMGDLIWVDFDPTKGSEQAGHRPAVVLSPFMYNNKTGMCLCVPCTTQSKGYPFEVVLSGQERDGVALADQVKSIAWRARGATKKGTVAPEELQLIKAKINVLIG

[15] = molecular target: T10, Endoribonuclease toxin MazF; experiment: MazF toxin RNase activators, dose response, biochemical, fluorescence, single-stranded RNA substrate, uHTS hits (AID 588481); type: functional

T6 sequence (P63165 whole entry): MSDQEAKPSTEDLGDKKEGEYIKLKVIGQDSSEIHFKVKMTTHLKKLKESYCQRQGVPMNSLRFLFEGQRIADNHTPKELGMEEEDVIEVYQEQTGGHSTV
Induced myeloid leukemia cell differentiation protein Mcl-1, sequence (Q07820 whole entry): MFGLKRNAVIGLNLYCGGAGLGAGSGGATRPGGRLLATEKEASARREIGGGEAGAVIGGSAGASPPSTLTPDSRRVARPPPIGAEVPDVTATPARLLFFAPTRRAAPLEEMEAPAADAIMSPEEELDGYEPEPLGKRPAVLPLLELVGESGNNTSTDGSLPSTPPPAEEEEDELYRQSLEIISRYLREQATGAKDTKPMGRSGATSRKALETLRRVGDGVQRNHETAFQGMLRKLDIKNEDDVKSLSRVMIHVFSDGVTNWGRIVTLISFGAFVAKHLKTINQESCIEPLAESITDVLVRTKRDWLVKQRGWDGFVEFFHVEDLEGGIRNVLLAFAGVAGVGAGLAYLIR
Cytochrome P450 3A4, sequence (P08684 whole entry): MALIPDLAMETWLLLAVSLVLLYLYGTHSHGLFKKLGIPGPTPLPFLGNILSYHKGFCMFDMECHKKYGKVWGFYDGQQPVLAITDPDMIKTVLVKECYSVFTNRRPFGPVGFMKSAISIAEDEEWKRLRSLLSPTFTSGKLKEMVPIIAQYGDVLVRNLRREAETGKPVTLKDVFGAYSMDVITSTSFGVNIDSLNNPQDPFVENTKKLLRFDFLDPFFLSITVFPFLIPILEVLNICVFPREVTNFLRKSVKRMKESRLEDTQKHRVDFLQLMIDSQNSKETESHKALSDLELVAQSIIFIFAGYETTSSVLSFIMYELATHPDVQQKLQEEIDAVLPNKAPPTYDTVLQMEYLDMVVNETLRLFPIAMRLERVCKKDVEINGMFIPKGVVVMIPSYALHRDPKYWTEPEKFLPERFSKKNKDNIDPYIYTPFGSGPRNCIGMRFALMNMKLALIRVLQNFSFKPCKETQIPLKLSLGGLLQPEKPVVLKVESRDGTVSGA
FAD-linked sulfhydryl oxidase ALR, sequence (P55789 whole entry): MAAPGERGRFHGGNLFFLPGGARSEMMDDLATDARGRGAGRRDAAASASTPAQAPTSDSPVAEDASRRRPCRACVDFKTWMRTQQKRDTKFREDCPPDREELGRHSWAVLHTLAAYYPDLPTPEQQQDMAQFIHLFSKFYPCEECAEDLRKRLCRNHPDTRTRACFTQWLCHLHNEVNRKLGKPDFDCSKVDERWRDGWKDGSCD
Cytochrome P450 2D6, sequence (P10635 whole entry): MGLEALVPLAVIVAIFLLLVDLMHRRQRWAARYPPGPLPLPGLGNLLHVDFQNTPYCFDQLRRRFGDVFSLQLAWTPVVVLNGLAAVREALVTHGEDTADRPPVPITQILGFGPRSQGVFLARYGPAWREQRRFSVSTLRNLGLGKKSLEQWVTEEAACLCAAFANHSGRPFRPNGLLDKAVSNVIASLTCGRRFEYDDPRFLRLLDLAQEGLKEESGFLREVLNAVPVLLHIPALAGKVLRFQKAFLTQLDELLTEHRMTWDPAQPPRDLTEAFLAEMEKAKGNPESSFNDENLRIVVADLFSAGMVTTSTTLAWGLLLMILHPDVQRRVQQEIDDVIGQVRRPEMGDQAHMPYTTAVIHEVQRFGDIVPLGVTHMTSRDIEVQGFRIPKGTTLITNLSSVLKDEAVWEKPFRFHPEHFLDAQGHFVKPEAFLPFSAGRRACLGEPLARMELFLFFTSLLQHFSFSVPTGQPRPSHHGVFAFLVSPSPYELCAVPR
Trypsin, sequence (P00761 whole entry): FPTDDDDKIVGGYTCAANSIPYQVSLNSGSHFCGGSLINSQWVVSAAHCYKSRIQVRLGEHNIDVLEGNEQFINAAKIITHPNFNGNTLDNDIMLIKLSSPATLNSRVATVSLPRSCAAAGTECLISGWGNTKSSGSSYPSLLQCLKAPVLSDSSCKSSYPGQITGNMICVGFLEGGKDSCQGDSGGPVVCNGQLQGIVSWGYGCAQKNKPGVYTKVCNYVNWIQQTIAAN

With `Nc1ccc2[nH]c(-c3ccccc3)nc2c1` the AC50 (CAAX prenyl protease 2) was 2.12 µM (active), the AC50 (Trypsin) was 3.48 µM (active) and the CC50 [1] was 100 µM (active). The AC50 [2] was 2.19 µM (active) and the IC50 [3] was 30.2 µM (active).
In the case of `COc1ccc(-c2cn3cccc(C)c3n2)cc1F`, the AC50 (HeLa) was > 350 µM (inactive).
In the case of `Clc1ccc(OCc2noc(-c3ccsc3)n2)c(Cl)c1`, the AC50 (HeLa) was 111 µM (active), the IC50 (HEK293) was > 67.5 µM (inactive) and the IC50 (Protein skinhead-1) was > 100 µM (inactive). For the same compound, the IC50 [4] was > 67.5 µM (inactive).
With `NCCc1ccc(OCc2ccccc2)c(OCc2ccccc2)c1` the IC50 [5] was > 20 µM (inactive), the AC50 (A-375) was 30.2 µM (active) and the AC50 [6] was 11.2 µM (active).
With `O=C(c1ccccc1C(F)(F)F)N1CCN(S(=O)(=O)c2ccccc2)CC1` the IC50 (HEK293) was > 67.6 µM (inactive) and the IC50 [4] was > 67.6 µM (inactive).
In the case of `COc1ccc(-c2cc3nc4ccccc4n3c(N)c2C#N)cc1`, the EC50 (Streptococcus) was 15.7 µM (active), the AC50 (HeLa) was 143 µM (active) and the IC50 [7] was > 66.6 µM (inactive). The IC50 [8] was 7.98 µM (active), the EC50 [9] was 1.45 µM (active) and the IC50 [10] was 2.52 µM (active). The EC50 (Streptokinase A) was > 150 µM (not active).
For `Cc1cc(C)nc(SCC(=O)N/N=C\c2sccc2C)n1`, the AC50 (Cytochrome P450 3A4) was 15.8 µM (inconclusive) and the AC50 (Cytochrome P450 2D6) was “inconclusive”.
For `COC(=O)c1cccc2c1NC(=O)C2=O`, the IC50 (HEK293) was > 67.6 µM (inactive) and the IC50 [4] was > 67.6 µM (inactive).
For `Cc1nc(N2CCOCC2)c2c(C)c(C(=O)Nc3ccccc3C(F)(F)F)sc2n1`, the EC50 [11] was > 50 µM (active) and the AC50 (CAAX prenyl protease 2) was 15 µM (active).
With `O=[N+]([O-])c1cccc(/C=C/c2nc(/C=N/c3ccccc3)c(O)o2)c1` the EC50 [12] was 39.4 µM (active), the EC50 [13] was > 300 µM (not active) and the EC50 [14] was 19.2 µM (active). For the same compound, the EC50 [15] was > 99 µM (inactive).
